Measured values from US6369101B1, “Therapeutic method to treat herpes virus infection” (Regents of the University of Minnesota, priority 1999, dated 2002).

How the values were obtained:
Epstein-Barr Virus = assay: VCA expression in EBV-infected Daudi cells; settings: Epstein-Barr Virus, Daudi cells, VCA; test compounds in DMSO
From the text: Raji is a Burkitt's lymphoma cell line containing 60 EBV genome/cell, and was the primary cell used for screening antiviral activity against EBV early antigen (EA) expression. […] It spontaneously expresses EBV EA in 0.25-0.5% of the cells. It was used in follow-up studies to confirm activity. These cell lines respond to superinfection by EBV by expressing EA-diffuse component EA (D), EA restricted component EA (R), and viral capsid antigen (VCA). […] The cultures were fed twice weekly and the cell concentration was adjusted to 3×10^5/ml. The cells were kept at 37° C. in humidified atmosphere with 5% CO2.
Cells were infected with the P3HR-1 strain of HBV and the test compound was added after adsorption (45 minutes at 37° C.) and washing of the cell cultures. The cultures were incubated for two days in complete medium to allow viral gene expression. Following the 48 hours of incubation, the numbers of cells of each sample was counted and smears were made. Monoclonal antibodies to the different EA components and VCA were then added to the cells and then incubated and washed. This is followed by a fluorescein conjugated rabbit anti-mouse IgG antibody, and the number of fluorescence cells in the smear were counted. The total number of cells in the cultures positive for EA or VCA were then calculated and compared.

HSV-2 (MS strain) [1] = assay: Vaginal HSV-2 (MS) infection in guinea pigs, topical ointment; format: in vivo, guinea pig
Method: Female Hartley outbred guinea pigs 26 days old and weighing approximately 350 to 400 grams each were obtained from Charles River Breeding Labs, Wilmington, Mass. The animals were housed singly and given feed and water ad lib.
2% Betulin and allobetulin ointment were prepared aseptically in polyethylene glycol (PEG) as ointment base and stored at room temperature until used.
Female guinea pigs weighing 200 g were inoculated intravaginally with HSV-2 (MS strain). One hour before viral inoculation the animals were swabbed using Dacron-polyester tipped applicator moistened in sterile saline to remove vaginal secretions. The animals were then infected with one drop of HSV-2 suspension containing 1×10^4 pfu, and the surface of the vaginal mucosa was slightly scarified with a sterile Greer Derma Pick® Skin Testing System (Greer Labs, Lenoir, N.C.).
The treatment of infected guinea pigs was started 18 hours after infection and continued twice daily for 3 days. […] Each experiment included uninfected control, infected and placebo controls. […] The swabs were stored at −80° C. until analyzed. The virus content of the specimens was measured by plaque assay in HEp-2 cells and the mean virus titer was calculated. […] The variable assessed was typical HSV vesicle formation, size, number and whether confluent, induration at the site of infection and scab formation.

HSV-2 (MS Strain) [2] = assay: Cutaneous HSV-2 infection in rats, topical ointment; format: in vivo, rat; settings: topical 2% ointment twice daily for 3 days

Row | Compound | EC50 (Epstein-Barr Virus) [mg/L] | effect on vaginal HSV-2 infection (in words) (HSV-2 (MS strain) [1]; 2% ointment twice daily for 3 days beginning 18 hours after infection) | typical lesions and virus content in the infected vaginal area (HSV-2 (MS strain) [1]; by 6 to 8 days, 2% ointment twice daily for 3 days) | effect on cutaneous HSV-2 infection (in words) (HSV-2 (MS Strain) [2])
1 | acycloguanosine [Acyclovir, reference compound] | 1.4 |  |  | 
2 | C=C(C)[C@@H]1CC[C@]2(CO)CC[C@]3(C)[C@H](CC[C@@H]4[C@@]5(C)CC[C@H](O)C(C)(C)[C@@H]5CC[C@]43C)[C@@H]12 [Betulin, lup-20(29)-ene-3β, 28-diol, reference compound] |  | Significant effect | decreased significantly | significant effect
